ChEMBL document CHEMBL1201861, “Genomics of Drug Sensitity in Cancer screening data, Wellcome Trust Sanger Institute”

Tests used:
Assay in all cases: cells
KARPAS-45 = format: functional, cell-based; details: Homo sapiens;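 note: inhibition of cell line growth, read out through a viability assay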
Description: SANGER: Inhibition of human KARPAS-45 cell growth in a cell viability assay.

VA-ES-BJ = format: functional, cell-based, Homo sapiens; details: Homo sapiens, VA-ES-BJ;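 note: growth inhibition of the VA-ES-BJ cell line, read out by a cell viability assay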
Description: SANGER: Inhibition of human VA-ES-BJ cell growth in a cell viability assay.

NCI-H226 = format: functional, cell-based, Homo sapiens; details: Homo sapiens, NCI-H226;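 note: cell viability read-out used to gauge growth inhibition of the cells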
Description: SANGER: Inhibition of human NCI-H226 cell growth in a cell viability assay.

CTV-1 = format: functional, cell-based; details: Homo sapiens;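 note: growth inhibition of the cell line, read out with a cell viability assay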
Description: SANGER: Inhibition of human CTV-1 cell growth in a cell viability assay.

KS-1 = format: functional, cell-based, Homo sapiens; details: Homo sapiens, KS-1;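 note: growth inhibition of KS-1 cells, read out with a cell viability assay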
Description: SANGER: Inhibition of human KS-1 cell growth in a cell viability assay.

IST-SL1 = format: functional, cell-based, Homo sapiens; details: Homo sapiens, IST-SL1;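 note: growth inhibition of human IST-SL1 cells, read out with a cell viability assay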
Description: SANGER: Inhibition of human IST-SL1 cell growth in a cell viability assay.

KE-37 = format: functional, cell-based; details: Homo sapiens;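 note: growth inhibition of KE-37 cells, read out with a cell viability assay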
KU812 cell line = format: functional, cell-based; details: Homo sapiens;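 note: growth inhibition of KU812 cells, read out with a cell viability assay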
Description: SANGER: Inhibition of human KU812 cell growth in a cell viability assay.

ML-2 = format: functional, cell-based; details: Homo sapiens;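 note: growth inhibition of ML-2 cells, measured with a cell viability readout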
Description: SANGER: Inhibition of human ML-2 cell growth in a cell viability assay.

MC116 = format: functional, cell-based; details: Homo sapiens;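 note: growth inhibition of MC116 cells, read out with a cell viability assay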
Description: SANGER: Inhibition of human MC116 cell growth in a cell viability assay.

OCUB-M = format: functional, cell-based, Homo sapiens; details: Homo sapiens, OCUB-M;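 note: growth inhibition of the cancer cell line, read out through a cell viability assay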
Description: SANGER: Inhibition of human OCUB-M cell growth in a cell viability assay.

MPP-89 = format: functional, cell-based, Homo sapiens; details: Homo sapiens, MPP-89;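 note: growth inhibition of human MPP-89 cells, read out with a cell viability assay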
Description: SANGER: Inhibition of human MPP-89 cell growth in a cell viability assay.

KP-N-YS = format: functional, cell-based; details: Homo sapiens;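 note: cell viability assay measuring inhibition of cell line growth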
Description: SANGER: Inhibition of human KP-N-YS cell growth in a cell viability assay.

OVCAR-4 = format: functional, cell-based, Homo sapiens; details: Homo sapiens, OVCAR-4;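 note: growth inhibition of human OVCAR-4 cells, measured with a cell viability assay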
Description: SANGER: Inhibition of human OVCAR-4 cell growth in a cell viability assay.

NOS-1 = format: functional, cell-based, Homo sapiens; details: Homo sapiens, NOS-1;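 note: growth inhibition of the human NOS-1 cell line, read out with a cell viability assay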
Description: SANGER: Inhibition of human NOS-1 cell growth in a cell viability assay.

NCI-H510A = format: functional, cell-based; details: Homo sapiens;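 note: growth inhibition of NCI-H510A cells, read out with a cell viability assay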
LB2518-MEL = format: functional, cell-based, Homo sapiens; details: Homo sapiens, LB2518-MEL;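 note: growth inhibition of human LB2518-MEL cells, measured with a cell viability assay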
Description: SANGER: Inhibition of human LB2518-MEL cell growth in a cell viability assay.

8-MG-BA = format: functional, cell-based, Homo sapiens; details: Homo sapiens, 8-MG-BA;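 note: growth inhibition of 8-MG-BA cells, read out with a cell viability assay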
Description: SANGER: Inhibition of human 8-MG-BA cell growth in a cell viability assay.

SH-4 = format: functional, cell-based, Homo sapiens; details: Homo sapiens, SH-4;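 note: growth inhibition of SH-4 cells, read out with a cell viability assay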
Description: SANGER: Inhibition of human SH-4 cell growth in a cell viability assay.

MZ1-PC = format: functional, cell-based, Homo sapiens; details: Homo sapiens, MZ1-PC;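 note: cell viability assay measuring growth inhibition of human MZ1-PC cells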
Description: SANGER: Inhibition of human MZ1-PC cell growth in a cell viability assay.

ES8 = format: functional, cell-based, Homo sapiens; details: Homo sapiens, ES8;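 note: growth inhibition of human ES8 cells, read out with a cell viability assay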
Description: SANGER: Inhibition of human ES8 cell growth in a cell viability assay.

MOLT-16 = format: functional, cell-based; details: Homo sapiens;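 note: growth inhibition of human MOLT-16 cells, read out with a cell viability assay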
Description: SANGER: Inhibition of human MOLT-16 cell growth in a cell viability assay.

EW-13 = format: functional, cell-based; details: Homo sapiens;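 note: growth inhibition of EW-13 cells, read out with a cell viability assay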
Description: SANGER: Inhibition of human EW-13 cell growth in a cell viability assay.

LB1047-RCC = format: functional, cell-based, Homo sapiens; details: Homo sapiens, LB1047-RCC;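 note: inhibition of cell growth, determined with a cell viability assay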
Description: SANGER: Inhibition of human LB1047-RCC cell growth in a cell viability assay.

HC-1 = format: functional, cell-based; details: Homo sapiens;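 note: growth inhibition of HC-1 cells measured by a cell viability assay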
Description: SANGER: Inhibition of human HC-1 cell growth in a cell viability assay.

KGN = format: functional, cell-based, Homo sapiens; details: Homo sapiens, KGN;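 note: growth inhibition of KGN cells, read out with a cell viability assay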
HH = format: functional, cell-based; details: Homo sapiens
Description: SANGER: Inhibition of human HH cell growth in a cell viability assay.

OS-RC-2 = format: functional, cell-based, Homo sapiens; details: Homo sapiens, OS-RC-2;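 note: growth inhibition of human OS-RC-2 cells, measured by a cell viability assay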
Description: SANGER: Inhibition of human OS-RC-2 cell growth in a cell viability assay.

RXF 393 = format: functional, cell-based; details: Homo sapiens;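 note: growth inhibition of human RXF 393 cells, read out with a cell viability assay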
NOMO-1 = format: functional, cell-based; details: Homo sapiens;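 note: growth inhibition of human NOMO-1 cells measured by a cell viability assay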
Description: SANGER: Inhibition of human NOMO-1 cell growth in a cell viability assay.

MLMA = format: functional, cell-based, Homo sapiens; details: Homo sapiens, MLMA;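 note: growth inhibition of MLMA cells (human), determined through a cell viability readout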
Description: SANGER: Inhibition of human MLMA cell growth in a cell viability assay.

| SMILES | IC50 (KARPAS-45) [nM] | IC50 (VA-ES-BJ) [nM] | IC50 (NCI-H226) [nM] | IC50 (CTV-1) [nM] | IC50 (KS-1) [nM] | IC50 (IST-SL1) [nM] | IC50 (KE-37) [nM] | IC50 (KU812 cell line) [nM] | IC50 (ML-2) [nM] | IC50 (MC116) [nM] | IC50 (OCUB-M) [nM] | IC50 (MPP-89) [nM] | IC50 (KP-N-YS) [nM] | IC50 (OVCAR-4) [nM] | IC50 (NOS-1) [nM] | IC50 (NCI-H510A) [nM] | IC50 (LB2518-MEL) [nM] | IC50 (8-MG-BA) [nM] | IC50 (SH-4) [nM] | IC50 (MZ1-PC) [nM] | also measured |
| --- | --- | --- | --- | --- | --- | --- | --- | --- | --- | --- | --- | --- | --- | --- | --- | --- | --- | --- | --- | --- | --- |
| O=C(/C=C/c1ccccc1)NC(NC(=S)Nc1cccc2cccnc12)C(Cl)(Cl)Cl (centres undefined) [SALUBRINAL] | > 16000 | > 16000 | > 16000 | > 16000 | > 16000 | > 16000 | 15300 | > 16000 | 4620 | 11200 | > 16000 | > 16000 | > 16000 | 14800 | > 16000 | 7040 | 7970 | 11000 | > 16000 | > 16000 | IC50 (ES8): 8640 nM; IC50 (MOLT-16): 14000 nM; IC50 (EW-13): > 16000 nM; IC50 (LB1047-RCC): > 16000 nM; IC50 (HC-1): 11200 nM; IC50 (KGN): > 16000 nM; IC50 (HH): > 16000 nM; IC50 (OS-RC-2): > 16000 nM; IC50 (RXF 393): > 16000 nM; IC50 (NOMO-1): > 16000 nM; IC50 (MLMA): > 16000 nM |
| CN1CCN(CCOc2cc(OC3CCOCC3)c3c(Nc4c(Cl)ccc5c4OCO5)ncnc3c2)CC1 [SARACATINIB] | > 2000 | > 2000 | > 2000 | 61.4 | 1200 | > 2000 | > 2000 | > 2000 | > 2000 | > 2000 | > 2000 | > 2000 | > 2000 | > 2000 | 605 | > 2000 | > 2000 | > 2000 | > 2000 | > 2000 | IC50 (ES8): > 2000 nM; IC50 (MOLT-16): > 2000 nM; IC50 (EW-13): > 2000 nM; IC50 (LB1047-RCC): 1550 nM; IC50 (HC-1): > 2000 nM; IC50 (KGN): 1280 nM; IC50 (HH): > 2000 nM; IC50 (OS-RC-2): 1890 nM; IC50 (RXF 393): 1240 nM; IC50 (NOMO-1): > 2000 nM; IC50 (MLMA): > 2000 nM |
| CO[C@H]1C[C@@H]2CC[C@@H](C)[C@@](O)(O2)C(=O)C(=O)N2CCCC[C@H]2C(=O)O[C@H]([C@H](C)C[C@@H]2CC[C@@H](O)[C@H](OC)C2)CC(=O)[C@H](C)/C=C(\C)[C@@H](O)[C@@H](OC)C(=O)[C@H](C)C[C@H](C)/C=C/C=C/C=C/1C [SIROLIMUS] | > 100 | 0.723 | > 100 | > 100 | 2.45 | > 100 | 16.1 | 2.01 | > 100 | 0.985 | < 0.391 | > 100 | > 100 | > 100 | 0.871 | > 100 | > 100 | > 100 | 4.34 | > 100 | IC50 (ES8): > 100 nM; IC50 (MOLT-16): > 100 nM; IC50 (EW-13): > 100 nM; IC50 (LB1047-RCC): 34.7 nM; IC50 (HC-1): > 100 nM; IC50 (KGN): 96.3 nM; IC50 (HH): 11.4 nM; IC50 (OS-RC-2): 0.652 nM; IC50 (RXF 393): > 100 nM; IC50 (NOMO-1): > 100 nM; IC50 (MLMA): > 100 nM |
| CNC(=O)c1cc(Oc2ccc(NC(=O)Nc3ccc(Cl)c(C(F)(F)F)c3)cc2)ccn1 [SORAFENIB] | > 4000 | > 4000 | > 4000 | > 4000 | 3880 | > 4000 | > 4000 | > 4000 | > 4000 | > 4000 | > 4000 | > 4000 | > 4000 | 2210 | 564 | > 4000 | 1210 | > 4000 | 656 | 3480 | IC50 (ES8): > 4000 nM; IC50 (MOLT-16): > 4000 nM; IC50 (EW-13): > 4000 nM; IC50 (LB1047-RCC): > 4000 nM; IC50 (HC-1): > 4000 nM; IC50 (KGN): > 4000 nM; IC50 (HH): > 4000 nM; IC50 (OS-RC-2): > 4000 nM; IC50 (RXF 393): > 4000 nM; IC50 (NOMO-1): > 4000 nM; IC50 (MLMA): > 4000 nM |
